# From patent US20110130447A1, “Production of hop extracts having oestrogenic and antiproliferative bioactivity” (priority 2004, published 2011)
# Legend:
# [1] = cited from earlier work; for oestrogenic activity: Milligan et al., 1999, 2000
# human oestrogen receptor = target: T1, human oestrogen receptor (Homo sapiens, UniProt P03372); test: Oestrogen-inducible yeast screen (Lac-Z reporter); format: cell-based; conditions: FIG. 4, relative to 8-prenylnaringenin
# T1 construct: expressed in transfected cells; host or cells: Saccharomyces cerevisiae
# Method: The yeasts were grown in a medium containing increasing concentrations of 17β-estradiol (positive control), 8-prenylnaringenin (8-PN), 8-isopentylnaringenin (8PN-H2) or dihydro-isoxanthohumol (IsoX-H2). Expression of the Lac-Z reporter gene was spectrophotometrically measured and quantified.
# [2] = Bioavailability and stability of 8-isopentylnaringenin compared with 8-prenylnaringenin
# [3] = system: oestrogen-responsive MCF-7 breast cancer cells; test: Bioassay of 8-prenylnaringenin-induced proliferation of MCF-7 cells and its inhibition by xanthohumol; format: cell-based
# Method: A bioassay was developed to probe proliferation of oestrogen-dependent cancer cells by 8-prenylnaringenin and to determine concentrations of xanthohumol required to inhibit this 8-prenylnaringenin-induced proliferation. Thereto, oestrogen-responsive MCF-7 breast cancer cells were grown in 96-well plates in the presence of a fixed and growth-stimulatory concentration of 8-prenylnaringenin and varying concentrations of xanthohumol. For each concentration of 8-prenylnaringenin (1 nM, 10 nM, and 100 nM), the concentrations of xanthohumol were 0 μM, 0.1 μM, 1 μM, 5 μM, 10 μM and 25 μM, respectively.
# [4] = Milligan et al., 2002; cited from earlier work
# [5] = system: mouse mammary gland organ culture; conditions: Gerhauser et al., 2002; cited from earlier work
# cyclooxygenase-1 = target: T2, cyclooxygenase-1 (Ovis aries, UniProt P05979); conditions: Gerhauser et al., 2002; cited from earlier work
# T2 sequence (P05979 25-600): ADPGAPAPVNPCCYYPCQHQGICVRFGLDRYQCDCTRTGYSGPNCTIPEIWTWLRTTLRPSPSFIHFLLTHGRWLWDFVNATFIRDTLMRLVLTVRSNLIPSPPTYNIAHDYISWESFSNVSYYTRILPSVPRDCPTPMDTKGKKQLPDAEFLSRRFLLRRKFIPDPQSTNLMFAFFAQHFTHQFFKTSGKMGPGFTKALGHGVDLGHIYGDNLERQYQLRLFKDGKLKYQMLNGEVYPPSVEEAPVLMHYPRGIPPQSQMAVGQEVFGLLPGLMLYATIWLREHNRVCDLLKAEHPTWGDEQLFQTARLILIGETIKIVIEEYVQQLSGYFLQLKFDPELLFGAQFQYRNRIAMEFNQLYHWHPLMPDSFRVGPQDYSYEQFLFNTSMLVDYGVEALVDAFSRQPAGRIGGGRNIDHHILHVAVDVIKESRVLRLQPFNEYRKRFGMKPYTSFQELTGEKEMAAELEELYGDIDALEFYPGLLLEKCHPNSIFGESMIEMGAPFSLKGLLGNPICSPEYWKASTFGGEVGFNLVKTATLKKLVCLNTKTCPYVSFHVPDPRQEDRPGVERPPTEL
# cyclooxygenase-2 = target: T3, cyclooxygenase-2 (Homo sapiens, UniProt P35354); conditions: Gerhauser et al., 2002; cited from earlier work
# T3 sequence (P35354 18-604): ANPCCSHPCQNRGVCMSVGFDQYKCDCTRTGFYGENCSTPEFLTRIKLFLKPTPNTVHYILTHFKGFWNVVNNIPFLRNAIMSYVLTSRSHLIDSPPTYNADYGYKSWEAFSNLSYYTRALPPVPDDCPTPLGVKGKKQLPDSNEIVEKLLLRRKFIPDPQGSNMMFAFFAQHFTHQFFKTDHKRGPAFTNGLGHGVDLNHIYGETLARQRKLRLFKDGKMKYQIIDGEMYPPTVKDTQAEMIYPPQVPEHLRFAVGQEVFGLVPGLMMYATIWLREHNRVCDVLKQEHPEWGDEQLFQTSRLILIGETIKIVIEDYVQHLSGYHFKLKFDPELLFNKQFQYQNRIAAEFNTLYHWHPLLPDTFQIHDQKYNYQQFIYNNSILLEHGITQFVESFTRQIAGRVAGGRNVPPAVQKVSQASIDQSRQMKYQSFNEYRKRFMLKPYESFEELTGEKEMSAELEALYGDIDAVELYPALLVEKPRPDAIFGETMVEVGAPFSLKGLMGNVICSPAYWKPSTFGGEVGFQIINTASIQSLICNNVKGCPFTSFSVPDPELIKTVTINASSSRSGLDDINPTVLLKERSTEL
# T1 sequence (P03372 whole entry): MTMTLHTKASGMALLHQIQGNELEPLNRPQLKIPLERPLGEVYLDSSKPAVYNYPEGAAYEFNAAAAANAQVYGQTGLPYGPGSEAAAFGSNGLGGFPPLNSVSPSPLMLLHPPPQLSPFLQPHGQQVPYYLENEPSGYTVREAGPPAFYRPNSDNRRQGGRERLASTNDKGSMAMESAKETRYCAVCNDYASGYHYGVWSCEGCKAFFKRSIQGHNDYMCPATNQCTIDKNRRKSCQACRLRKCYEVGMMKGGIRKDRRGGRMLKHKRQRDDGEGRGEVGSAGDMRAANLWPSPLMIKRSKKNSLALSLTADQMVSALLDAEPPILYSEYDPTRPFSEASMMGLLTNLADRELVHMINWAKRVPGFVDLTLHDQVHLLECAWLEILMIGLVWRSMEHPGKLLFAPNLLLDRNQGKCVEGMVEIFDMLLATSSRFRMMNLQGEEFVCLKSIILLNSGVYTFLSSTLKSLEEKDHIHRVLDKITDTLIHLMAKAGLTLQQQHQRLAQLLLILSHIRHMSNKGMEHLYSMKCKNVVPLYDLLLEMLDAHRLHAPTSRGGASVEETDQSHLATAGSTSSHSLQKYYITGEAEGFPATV
smiles,measurement,setting,value
"CC(C)=CCc1c(O)c(CC=C(C)C)c2c(c1O)C(=O)C[C@@H](c1ccc(O)cc1)O2 [6,8-diprenylnaringenin]",oestrogenic activity,[1],only weakly oestrogenic
CC(C)=CCc1c(O)cc2c(c1O)C(=O)C[C@@H](c1ccc(O)cc1)O2 [6-prenylnaringenin],oestrogenic activity,[1],only weakly oestrogenic
CC(C)=CCC/C(C)=C/Cc1c(O)cc(O)c2c1O[C@H](c1ccc(O)cc1)CC2=O [8-geranylnarin-genin],oestrogenic activity,[1],only weakly oestrogenic
CC(C)CCc1c(O)cc(O)c2c1O[C@H](c1ccc(O)cc1)CC2=O [8-isopentylnaringenin],"oestrogenic activity, times weaker than 8-prenylnaringenin",human oestrogen receptor,3-4 times
same,stability compared to 8-prenylnaringenin (less easily metabolised),[2],better stability
CC(C)=CCc1c(O)cc(O)c2c1O[C@H](c1ccc(O)cc1)CC2=O [8-prenylnaringenin],oestrogenic activity,[1],activity greater than that of other established phyto-oestrogens
same,proliferation of MCF-7 breast cancer cells,"[3]; increasing concentrations of 8-prenylnaringenin (1 nM, 10 nM, 100 nM), FIG. 2",increased proliferation
same,oestrogenic activity in vivo,[4],high oestrogenic activity
COc1cc(O)c(CC=C(C)C)c2c1C(=O)CC(c1ccc(O)cc1)O2 (stereo not shown) [isoxanthohumol],oestrogenic activity,[1],only weakly oestrogenic
COc1cc(O)c(CC=C(C)C)c(O)c1C(=O)/C=C/c1ccc(O)cc1 [xanthohumol],prevention of carcinogen-induced preneoplastic lesions,[5],efficient at nanomolar concentrations
same,inhibition of cyclooxygenase-1 activity,cyclooxygenase-1,inhibition
same,oestrogenic activity of xanthohumol,[1]; no source stated,oestrogenically inactive
same,inhibition of cyclooxygenase-2 activity,cyclooxygenase-2,inhibition
same,xanthohumol to 8-prenylnaringenin weight ratio giving sufficient inhibition of proliferation,[3]; FIG. 2,at least 10
same,concentrations of xanthohumol that significantly inhibit the proliferation induced by 8-prenylnaringenin,"[3]; MCF-7 cells, 8-prenylnaringenin 1, 10, 100 nM",at least 5 μM
same,concentrations of xanthohumol that stimulated the proliferation induced by 8-prenylnaringenin,"[3]; MCF-7 cells, each concentration of 8-prenylnaringenin, ratio of xanthohumol to 8-prenylnaringenin below 10",< 1 µM
